Test results taken from BigSolDB 2.1.

COC(=O)/C=C/C(=O)OC
Conditions	solubility (mole fraction)
in ethanol, 289.95 K	0.00328
in ethanol, 294.45 K	0.00465
in ethanol, 297.55 K	0.00607
in ethanol, 303.15 K	0.00908
in ethanol, 307.3 K	0.0122
in ethanol, 311.1 K	0.0157
in ethanol, 314.75 K	0.0199
in ethanol, 318.65 K	0.0253
in ethanol, 322.55 K	0.0326
in ethanol, 327.35 K	0.0431
in ethanol, 331.85 K	0.058
in ethanol, 336.05 K	0.0751
in isopropanol, 295.8 K	0.00533
in isopropanol, 300.95 K	0.00748
in isopropanol, 304.35 K	0.0097
in isopropanol, 306.7 K	0.0117
in isopropanol, 309.85 K	0.0148
in isopropanol, 312.55 K	0.0183
in isopropanol, 316.85 K	0.025
in isopropanol, 320 K	0.0318
in isopropanol, 322.8 K	0.0396
in isopropanol, 326.25 K	0.0486
in isopropanol, 329.75 K	0.0629
in isopropanol, 332.85 K	0.0785
in isopropanol, 335.8 K	0.0997
in methanol, 297.45 K	0.00749
in methanol, 301 K	0.00948
in methanol, 305.55 K	0.0122
in methanol, 309.17 K	0.0152
in methanol, 312.85 K	0.0189
in methanol, 316.45 K	0.0231
in methanol, 319.37 K	0.0279
in methanol, 322.28 K	0.0335
in methanol, 325.93 K	0.04
in methanol, 329.15 K	0.0491
in methanol, 332.3 K	0.06
in methanol, 337.65 K	0.081
in n-propanol, 295.2 K	0.00504
in n-propanol, 299.95 K	0.00668
in n-propanol, 304.35 K	0.00906
in n-propanol, 307.85 K	0.0114
in n-propanol, 310.7 K	0.0138
in n-propanol, 313.2 K	0.0174
in n-propanol, 318.7 K	0.0253
in n-propanol, 323.65 K	0.0369
in n-propanol, 328.95 K	0.0535
in n-propanol, 332.5 K	0.0686
in n-propanol, 335.65 K	0.087
in n-propanol, 338.15 K	0.106
in n-propanol, 341.3 K	0.136
in propylene glycol, 302.75 K	0.000378
in propylene glycol, 307.05 K	0.000797
in propylene glycol, 310.55 K	0.00143
in propylene glycol, 314.25 K	0.00255
in propylene glycol, 316.75 K	0.00366
in propylene glycol, 320.05 K	0.00586
in propylene glycol, 323.25 K	0.00886
in propylene glycol, 327.95 K	0.0149
in propylene glycol, 332.15 K	0.023
in propylene glycol, 337.25 K	0.0349
in propylene glycol, 342.35 K	0.051
in propylene glycol, 347.15 K	0.073
in water, 300.55 K	9.27e-05
in water, 302.6 K	0.000116
in water, 309.85 K	0.000236
in water, 315.45 K	0.000365
in water, 322.4 K	0.000575
in water, 328.05 K	0.000781
in water, 333.25 K	0.000989
in water, 337.05 K	0.00113
in water, 340.65 K	0.00132
in water, 344.45 K	0.00148
